Experimental data from ChEMBL document CHEMBL4011593, “Development of 2, 4-diaminoquinazoline derivatives as potent PAK4 inhibitors by the core refinement strategy” (Eur J Med Chem, 2017).

Biological target: T1, Serine/threonine-protein kinase PAK 4 (Homo sapiens, UniProt O96013)
Experiment: Inhibition of myc-tagged PAK4 (unknown origin) using histone H3 as substrate preincubated for 30 mins followed by substrate addition measured for 30 mins in presence of [gamma-32P]ATP by autoradiographic method
Conditions: not given

T1 sequence (O96013 whole entry): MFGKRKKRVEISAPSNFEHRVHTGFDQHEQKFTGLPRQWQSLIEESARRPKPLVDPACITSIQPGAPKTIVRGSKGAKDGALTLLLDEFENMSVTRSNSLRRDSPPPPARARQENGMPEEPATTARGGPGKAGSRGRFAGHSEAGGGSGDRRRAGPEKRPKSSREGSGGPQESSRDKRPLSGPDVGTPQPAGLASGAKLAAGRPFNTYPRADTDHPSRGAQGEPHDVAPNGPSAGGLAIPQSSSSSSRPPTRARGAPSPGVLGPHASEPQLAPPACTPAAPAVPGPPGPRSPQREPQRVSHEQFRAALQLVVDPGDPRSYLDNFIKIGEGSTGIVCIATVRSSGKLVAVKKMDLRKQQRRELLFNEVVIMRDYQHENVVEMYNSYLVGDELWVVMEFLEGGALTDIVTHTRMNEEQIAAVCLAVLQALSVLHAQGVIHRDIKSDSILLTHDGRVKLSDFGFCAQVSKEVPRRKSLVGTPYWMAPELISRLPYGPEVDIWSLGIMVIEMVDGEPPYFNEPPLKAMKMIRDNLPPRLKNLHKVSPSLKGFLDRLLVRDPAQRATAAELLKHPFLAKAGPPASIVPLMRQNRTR

SMILES | IC50
COc1cccc(Nc2nc(NCC3CCCO3)c3ccccc3n2)c1 (configuration not stated) | 14500 nM

Tested on: not listed separately
Experiment: Oral bioavailability in metastatic solid tumor patient
Assay type: ADME, organism-based
Conditions: human, in vivo

SMILES | bioavailability
Cc1nc(Nc2n[nH]c3c2CN(C(=O)N[C@H](CN(C)C)c2ccccc2)C3(C)C)c2sccc2n1 [PF-03758309] | 1%

Biological target: T1, Serine/threonine-protein kinase PAK 4
Experiment: Inhibition of recombinant human N-terminal GST-fused PAK4 (1 to 591 residues) expressed in baculovirus expression system using S2 as substrate measured after 40 mins by HTRF assay
Conditions: not given

SMILES | IC50
Clc1ccc2nc(Nc3ccc4[nH]nnc4c3)nc(NCCc3c[nH]c4ccccc34)c2c1 | 1160 nM
COc1ccc2c(Nc3ccc4[nH]ncc4c3)nc(NCCc3c[nH]c4ccccc34)nc2c1 | 483 nM
Clc1ccc2nc(Nc3cc(Br)c4[nH]ncc4c3)nc(NCCc3c[nH]c4ccccc34)c2c1 | 1060 nM
Clc1ccc2nc(Nc3ccc4cn[nH]c4c3)nc(NCCc3c[nH]c4ccccc34)c2c1 | 2040 nM
Clc1ccc2nc(Nc3ccc4[nH]cnc4c3)nc(NCCc3c[nH]c4ccccc34)c2c1 | 3070 nM
COc1ccc2nc(NCCc3c[nH]c4ccccc34)nc(Nc3ccc4[nH]ncc4c3)c2c1 | 1510 nM
Clc1ccc2nc(Nc3cc(Cl)c4[nH]ncc4c3)nc(NCCc3c[nH]c4ccccc34)c2c1 | 937 nM
Cc1cc(Nc2nc(NCCc3c[nH]c4ccccc34)c3cc(Cl)ccc3n2)cc2cn[nH]c12 | 2330 nM
O=C1Cc2cc(Nc3nc(NCCc4c[nH]c5ccccc45)c4cc(Cl)ccc4n3)ccc2N1 | 1760 nM
Clc1ccc2nc(Nc3cnc4[nH]ncc4c3)nc(NCCc3c[nH]c4ccccc34)c2c1 | 633 nM
